IC50 and Activity data for 6 compounds are collected here from ChEMBL document CHEMBL1158967, “A cytotoxic and antifungal 1,4-naphthoquinone and related compounds from a New Zealand brown algae, Landsburgia quercifolia” (J Nat Prod, 1991).

≈ marks a conversion by molar mass, not a printed value. Calls of active or inactive are those of the source. No cut-off for these calls is given here.

One data set deals with P388. In words: Cytotoxicity against mouse P388 cells. In kind it is functional, cell-based.
The nature of data set [1]: Cytotoxicity against african green monkey BSC1 cells at 10 ug. In kind it is cell-based. The following applies: chlorocebus aethiops, bsc-1.
A further data set relates to Poliovirus 1. In words: Antiviral activity against Poliovirus type 1 in african green monkey BSC1 cells assessed as inhibition of virus-induced cytopathic effect. The data set is classed as functional, organism-based. The following applies: BSC-1. (In general: Protection from cytopathic effect is a common read-out in antiviral testing.)
Another data set has as its system Human alphaherpesvirus 1. Briefly: Antiviral activity against HSV1 in african green monkey BSC1 cells assessed as inhibition of virus-induced cytopathic effect. In kind it is functional, organism-based. To be noted: BSC-1.
A further data set deals with Bacillus subtilis. Briefly: Antimicrobial activity against Bacillus subtilis at 60 ug/disk. The data set is classed as functional, organism-based.
The subject of another data set is Candida albicans. In words: Antimicrobial activity against Candida albicans at 60 ug/disk. In kind it is functional, organism-based.
Data set [2] has as its system Trichophyton mentagrophytes. In words: Antimicrobial activity against Trichophyton mentagrophytes at 60 ug/disk. In kind it is functional, organism-based.
The test system of the next data set is Escherichia coli. Briefly: Antimicrobial activity against Escherichia coli at 60 ug/disk. The data set is classed as functional, organism-based.
Another data set concerns Pseudomonas aeruginosa. Briefly: Antimicrobial activity against Pseudomonas aeruginosa at 60 ug/disk. In kind it is functional, organism-based.

As a reminder, the IC50 is the midpoint of a concentration-inhibition curve. In turn, `COc1cc(CC=C(C)C)c(OC)c2ccccc12` had a 50% inhibitory concentration (IC50) in the data set with P388 of over 25 µg/mL.

For `CC(C)=CCC12OC1C(=O)c1ccccc1C2=O` (configuration not stated), the IC50 in the data set with P388 was 0.8 µg/mL (≈ 3.3 µM). Besides, in data set [1], the outcome was Active. Also, the outcome in the data set with Poliovirus 1, with Human alphaherpesvirus 1, in the data set on Escherichia coli and with Pseudomonas aeruginosa was inactive. Further, the result (in the data set on Bacillus subtilis; in the data set on Candida albicans; in data set [2]) was Active.

In turn, `CC(C)=CCC1(CC=C(C)C)CC(=O)c2ccccc2C1=O` showed an IC50 in the data set with P388 of over 12.5 µg/mL.

`COC1(OC)c2ccccc2C(=O)C2(CC=C(C)C)OC21` (racemic) came in with an IC50 in the data set with P388 of over 12.5 µg/mL.

Compound `CC(C)=CCC1=CC(=O)c2ccccc2C1=O` [DEOXYLAPACHOL] displayed an IC50 in the data set with P388 of 0.6 µg/mL (≈ 2.65 µM). In addition, the outcome in data set [1] was Active. Further, the outcome with Poliovirus 1, with Human alphaherpesvirus 1, with Escherichia coli and in the data set on Pseudomonas aeruginosa was inactive. Besides, the outcome (in the data set on Bacillus subtilis; with Candida albicans; in data set [2]) was Active.

As for `CC(C)=CCC1=C(O)C(=O)c2ccccc2C1=O` [LAPACHOL], in the data set on P388, the IC50 stood at 0.2 µg/mL (≈ 0.826 µM).
